Here are results for 34 compounds from the SangsterLogP compilation.

Usually logP stands for the decadic logarithm of the partition coefficient of the neutral form, usually between octanol and water. `CCCCCCCCCCC(C)(C)c1ccc(C2CCCC(O)C2)c(O)c1` (centres undefined) returned a logP of 8.42.
`CCCCCCC(C)(C)c1ccc(C2CC(O)CCC2CCCO)c(O)c1` (centres undefined) yielded a lipophilicity (logP) of 6.13.
Next, `CCCCCCC(C)(C)c1cc(O)c2c(c1)OC(C)(C)C1CCC(CO)=CC21` (centres undefined): 7.83; `CC1=CCC2C(C1)c1c(O)cc(NS(C)(=O)=O)cc1OC2(C)C` (centres undefined): 3.12.
The compound `CCCCCc1cc(OCc2ccc(-c3ccccc3)cc2)c2c(c1)OC(C)(C)C1CC=C(C)CC21` (centres undefined) registered a lipophilicity (logP) of 10.9.
Next, `CCCCCCC(C)(C)c1cc(O)c2c(c1)OC(C)(C)C1CC=C(CO)CC21` (centres undefined): 7.44; `CCCCCCC(C)(C)c1ccc([C@@H]2C[C@H](O)C[C@@H]3CC[C@H](CO)C[C@H]32)c(O)c1`: 6.13.
The compound `CCCCCC(C)C(C)c1cc(O)c2c(c1)OC(C)(C)C1=C2CC(C)CC1` (centres undefined) displayed a logP of 8.3.
In turn, `CCCCCc1cc(OC)c2c(c1)OC(C)(C)[C@@H]1CC=C(C)C[C@@H]21` registered a lipophilicity (logP) of 8.06.
Next, `CCCCCCC(C)(C)c1cc(O)c2c(c1)OC(C)(C)C1CCC(C=O)=CC21` (centres undefined): 8.03.
`CCCCCCCC(C)(C)c1ccc([C@H]2CCC[C@@H](O)C2)c(O)c1` came in with a lipophilicity (logP) of 7.18.
The value for `CCCCCc1cc(O)c2c(c1)OC(C)(C)c1ccc(C)cc1-2` was 6.23; that for `CCCCCCC(C)(C)c1ccc(C2CC(O)CCC2CCCCO)c(O)c1` (centres undefined) was 6.68.
With `CCCCCc1cc(OCCCCN)c2c(c1)OC(C)(C)C1CC=C(C)CC21` (centres undefined), the lipophilicity (logP) is 8.38.
Compound `CCCC(C)(C)c1ccc(C2CCCC(O)C2)c(O)c1` (centres undefined) came in with a log partition coefficient (logP) of 4.82.
The value for `C=C(C)[C@@H]1CCC(C)=C[C@H]1c1c(O)cc(CCCCC)cc1O` was 5.79; that for `CCCCCC(C)(C)c1ccc([C@H]2CCC[C@@H](O)C2)c(O)c1` was 5.97; that for `CCCCCc1cc(O)c2c(c1)OC(C)(C)[C@@H]1CC=C(C(=O)O)C[C@@H]21` was 3.51.
`CCCCCCC(C)(C)c1ccc(C2CCCC(O)C2)c(O)c1` (centres undefined): the logP is 6.68.
The compound `CCCCCc1cc(O)c2c(c1)OC(C)(C)[C@@H]1CCC(CO)=C[C@@H]21` displayed a log partition coefficient (logP) of 5.33.
The value for `CCCCCc1cc(OCCCCCN2CC(=O)c3ccccc3C2=O)c2c(c1)OC(C)(C)C1CC=C(C)CC21` (centres undefined) was 9.07.
The value for `C=C1C[C@H]2c3c(O)cc(CCCCC)cc3OC(C)(C)[C@@H]2C[C@H]1O` was 4.24; that for `C=C1CC[C@@H]2[C@@H](C1)c1c(OCc3ccc(-c4ccccc4)cc3)cc(CCCCC)cc1OC2(C)C` was 11.3.
The value for `CCCCC(C)(C)c1ccc(C2CCCC(O)C2)c(O)c1` (centres undefined) was 5.43.
Regarding `CC(=O)Oc1cc(OC(C)CCCc2ccccc2)cc2c1C1CC(O)CCC1C(C)N2C` (centres undefined), the log partition coefficient (logP) came to 5.72.
Next, `CCC(C)(C)c1ccc(C2CCCC(O)C2)c(O)c1` (centres undefined): 4.32.
Compound `C=C1CCC2C(C1)c1c(OC)cc(CCCCC)cc1OC2(C)C` (centres undefined) came in with a lipophilicity (logP) of 7.62.
The value for `C=C1CCC2C(C1)c1c(OC)cc(CCC)cc1OC2(C)C` (centres undefined) was 6.26; that for `CCCCCCC(C)(C)c1ccc(C2CC(O)CCC2C)c(O)c1` (centres undefined) was 7.49.
On to `CCCCCCCCC(C)(C)c1ccc([C@H]2CCC[C@@H](O)C2)c(O)c1`, for which the log partition coefficient (logP) amounted to 8.16.
Consider `CC(C)(C)c1ccc(C2CCCC(O)C2)c(O)c1` (centres undefined), for which the logP came to 4.05.
Regarding `CC(=O)Oc1cc(O[C@H](C)CCCc2ccccc2)cc2c1[C@@H]1C[C@H](O)CC[C@H]1[C@H](C)N2`, the log partition coefficient (logP) is 5.7.
The value for `CCCCCCC(C)(C)c1cc(O)c2c(c1)OC(C)(C)C1CC=C(C)CC21` (centres undefined) was 9.96; that for `CCCCCc1cc(O)c2c(c1)OC(C)(C)C1CC=C(C)CC21` (centres undefined) was 7.41.
